Results on 6 molecules are retold here after patent US20260201008A1, “SECRETIN-DERIVED GLP1R SELECTIVE AGONISTS” (GUBRA A/S, priority 2023, published 2026).

Square brackets hold non-standard residues; d marks the D form. Peptide text beside a SMILES is read from it. Aib = CC(C)(N)C(=O)O

A short description of data set [1]: Turbidity of crude library peptides (absorbance at 600 nm). The note with it: Physical stability of peptides. Format: physicochemical. Summed up: (§1)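 Fibril formation is scored as average ThT fluorescence from duplicate samples monitored for 72 h at 40° C with shaking stress. Turbidity is the absorbance at 600 nm taken before heating. Peptide concentration was 267 μM at pH 4.0 or pH 7.0.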

Data set [2] can be described thus: Fibril formation of crude library peptides (Thioflavin T). In kind it is physicochemical. Also on record: key: average ThT fluorescence emission at 480 nm (ex 450 nm), raw units. The following applies: Physical stability of peptides. Summed up:
as §1

The target in a further data set is GLP1R (Homo sapiens, UniProt P43220). As to the kind of experiment: hGLP1R potency, cAMP accumulation in CHO-K1 cells stably overexpressing hGLP1R. The following applies: for EC50: cAMP accumulation, CHO-K1 cells stably overexpressing hGLP1R, read-out: hGLP1R potency (pEC50) (converted); for SCTR EC50/GLP1R EC50 ratio: selectivity ratio, hSCTR vs hGLP1R, cAMP accumulation in CHO-K1 cells. Also on record: host or cells: CHO-K1. Format: cell-based. Summed up: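 TR-FRET cAMP read-out, one hour after reagent addition, following 30 min compound exposure at RT in DPBS/0.05% casein/0.5 mM IBMX. Crude peptides: 5 points, 10-fold steps, n=1. Purified peptides: 11 points, 3-fold steps, n=2. EC50 fitted with a variable-slope sigmoid.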
GLP1R, sequence (P43220 24-463): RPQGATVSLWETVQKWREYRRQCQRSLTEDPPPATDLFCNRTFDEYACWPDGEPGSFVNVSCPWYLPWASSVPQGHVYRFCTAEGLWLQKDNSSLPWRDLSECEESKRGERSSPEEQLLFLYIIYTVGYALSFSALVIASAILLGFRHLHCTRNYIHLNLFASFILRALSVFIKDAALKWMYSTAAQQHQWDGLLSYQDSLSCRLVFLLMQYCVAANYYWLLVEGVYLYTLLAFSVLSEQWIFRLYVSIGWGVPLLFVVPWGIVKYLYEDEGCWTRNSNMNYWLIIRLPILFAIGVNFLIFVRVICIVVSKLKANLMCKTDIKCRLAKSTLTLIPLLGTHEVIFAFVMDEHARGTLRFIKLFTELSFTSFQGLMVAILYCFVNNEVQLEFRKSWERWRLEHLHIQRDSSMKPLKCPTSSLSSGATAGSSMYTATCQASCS

A further data set concerns the target SCTR (Homo sapiens, UniProt P47872). Briefly: hSCTR potency, cAMP accumulation in CHO-K1 cells stably overexpressing hSCTR. In kind it is cell-based. Also on record: alternatively Euroscreen ES-712-AF; FAST-0161L; host or cells: CHO-K1. The following applies: cAMP accumulation, CHO-K1 cells stably overexpressing hSCTR; read-out: hSCTR potency (pEC50) (converted). The method, boiled down:
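CHO-K1/hSCTR cells; DPBS + 0.05% casein + 0.5 mM IBMX; 30 min RT stimulation; cAMP by TR-FRET read at 1 h. Crude peptides: 5-point 10-fold dilutions, n=1. Purified: 11-point 3-fold dilutions, n=2. EC50 via variable-slope fit.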
A general note: Cyclic AMP is a second messenger, typically raised through Gs and lowered through Gi signalling.

SCTR, sequence (P47872 23-440): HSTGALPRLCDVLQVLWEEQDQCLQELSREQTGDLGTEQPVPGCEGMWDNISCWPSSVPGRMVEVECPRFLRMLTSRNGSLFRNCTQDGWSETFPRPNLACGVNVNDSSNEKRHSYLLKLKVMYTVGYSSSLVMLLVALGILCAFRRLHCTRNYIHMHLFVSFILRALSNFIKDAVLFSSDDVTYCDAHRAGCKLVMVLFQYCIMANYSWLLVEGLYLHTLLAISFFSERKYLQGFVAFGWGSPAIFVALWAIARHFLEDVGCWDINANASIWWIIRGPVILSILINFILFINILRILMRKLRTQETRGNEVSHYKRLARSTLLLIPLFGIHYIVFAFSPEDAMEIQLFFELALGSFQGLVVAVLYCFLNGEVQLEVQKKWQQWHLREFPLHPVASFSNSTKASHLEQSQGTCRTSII

As for `CC[C@H](C)[C@H](NC(=O)[C@H](Cc1ccccc1)NC(=O)[C@H](CCCNC(=N)N)NC(=O)[C@H](CCC(N)=O)NC(=O)[C@H](CC(C)C)NC(=O)[C@H](C)NC(=O)[C@H](C)NC(=O)CNC(=O)[C@H](CCC(=O)O)NC(=O)[C@H](CC(C)C)NC(=O)[C@H](CC(C)C)NC(=O)[C@H](CCCNC(=N)N)NC(=O)[C@H](CO)NC(=O)[C@H](Cc1c[nH]c2ccccc12)NC(=O)[C@H](CC(=O)O)NC(=O)[C@H](CO)NC(=O)[C@@H](NC(=O)[C@H](Cc1ccccc1)NC(=O)[C@@H](NC(=O)CNC(=O)[C@H](CCC(=O)O)NC(=O)C(C)(C)NC(=O)[C@@H](N)Cc1c[nH]cn1)[C@@H](C)O)[C@@H](C)O)C(=O)N[C@@H](CCC(N)=O)C(=O)N[C@@H](Cc1c[nH]c2ccccc12)C(=O)N[C@@H](CC(C)C)C(=O)N[C@H](C(N)=O)C(C)C` [compound 186] (H-H[Aib]EGTFTSDWSRLLEGAALQRFIQWLV-NH2), in data set [1], the “Turbidity (pH 7)” value stood at 1.04. This molecule returned a Fibril formation in data set [2] of 48618. In addition, the EC50 at GLP1R is 0.0126 nM; at SCTR it was 6.31 nM. Moreover, the “SCTR EC50/GLP1R EC50 ratio” value on GLP1R is on record as 478.

Take `CC[C@H](C)[C@H](NC(=O)[C@H](Cc1ccccc1)NC(=O)[C@H](CCCNC(=N)N)NC(=O)[C@H](CCC(N)=O)NC(=O)[C@H](CC(C)C)NC(=O)[C@H](C)NC(=O)[C@H](C)NC(=O)CNC(=O)[C@H](CCC(=O)O)NC(=O)[C@H](CC(C)C)NC(=O)[C@H](CC(C)C)NC(=O)CNC(=O)[C@H](CO)NC(=O)[C@H](Cc1c[nH]c2ccccc12)NC(=O)[C@H](CC(=O)O)NC(=O)[C@H](CO)NC(=O)[C@@H](NC(=O)[C@H](Cc1ccccc1)NC(=O)[C@@H](NC(=O)CNC(=O)[C@H](CCC(=O)O)NC(=O)C(C)(C)NC(=O)[C@@H](N)Cc1c[nH]cn1)[C@@H](C)O)[C@@H](C)O)C(=O)N[C@@H](CCC(N)=O)C(=O)N[C@@H](Cc1c[nH]c2ccccc12)C(=O)N[C@@H](CC(C)C)C(=O)N[C@H](C(N)=O)C(C)C` [compound 187] (H-H[Aib]EGTFTSDWSGLLEGAALQRFIQWLV-NH2): the “Turbidity (pH 7)” value in data set [1] was 0.62. The molecule also returned a Fibril formation in data set [2] of 13388. Moreover, at GLP1R, the EC50 was 0.0398 nM and the “SCTR EC50/GLP1R EC50 ratio” value worked out at 1437. Further, the EC50 on SCTR is 50.1 nM.

Regarding `CC[C@H](C)[C@H](NC(=O)[C@H](Cc1ccccc1)NC(=O)[C@H](CCCNC(=N)N)NC(=O)[C@H](CCC(N)=O)NC(=O)[C@H](CC(C)C)NC(=O)[C@H](C)NC(=O)[C@H](C)NC(=O)CNC(=O)[C@H](CCC(=O)O)NC(=O)[C@H](CC(C)C)NC(=O)[C@H](CC(C)C)NC(=O)[C@@H](NC(=O)[C@H](CO)NC(=O)[C@H](Cc1c[nH]c2ccccc12)NC(=O)[C@H](CC(=O)O)NC(=O)[C@H](CO)NC(=O)[C@@H](NC(=O)[C@H](Cc1ccccc1)NC(=O)[C@@H](NC(=O)CNC(=O)[C@H](CCC(=O)O)NC(=O)C(C)(C)NC(=O)[C@@H](N)Cc1c[nH]cn1)[C@@H](C)O)[C@@H](C)O)C(C)C)C(=O)N[C@@H](CCC(N)=O)C(=O)N[C@@H](Cc1c[nH]c2ccccc12)C(=O)N[C@@H](CC(C)C)C(=O)N[C@H](C(N)=O)C(C)C` [compound 188] (H-H[Aib]EGTFTSDWSVLLEGAALQRFIQWLV-NH2), the “Turbidity (pH 7)” value in data set [1] is on record as 0.85. The same molecule had a Fibril formation in data set [2] of 260000. On GLP1R, the EC50 is 0.0794 nM and the “SCTR EC50/GLP1R EC50 ratio” value was found to be 468. In addition, the EC50 at SCTR is 31.6 nM.

Consider `CC[C@H](C)[C@H](NC(=O)[C@H](Cc1ccccc1)NC(=O)[C@H](CCCNC(=N)N)NC(=O)[C@H](CCC(N)=O)NC(=O)[C@H](CC(C)C)NC(=O)[C@H](C)NC(=O)[C@H](C)NC(=O)CNC(=O)[C@H](CCC(=O)O)NC(=O)[C@H](CC(C)C)NC(=O)[C@H](CC(C)C)NC(=O)[C@H](Cc1ccc(O)cc1)NC(=O)[C@H](CO)NC(=O)[C@H](Cc1c[nH]c2ccccc12)NC(=O)[C@H](CC(=O)O)NC(=O)[C@H](CO)NC(=O)[C@@H](NC(=O)[C@H](Cc1ccccc1)NC(=O)[C@@H](NC(=O)CNC(=O)[C@H](CCC(=O)O)NC(=O)C(C)(C)NC(=O)[C@@H](N)Cc1c[nH]cn1)[C@@H](C)O)[C@@H](C)O)C(=O)N[C@@H](CCC(N)=O)C(=O)N[C@@H](Cc1c[nH]c2ccccc12)C(=O)N[C@@H](CC(C)C)C(=O)N[C@H](C(N)=O)C(C)C` [compound 189] (H-H[Aib]EGTFTSDWSYLLEGAALQRFIQWLV-NH2), for which, in data set [1], the “Turbidity (pH 7)” value amounted to 0.37. The molecule also gave a Fibril formation in data set [2] of 94029. Moreover, at GLP1R, the EC50 is 0.0158 nM and the “SCTR EC50/GLP1R EC50 ratio” value stood at 10195. Further, on SCTR, the EC50 is 158 nM.

Consider `CC[C@H](C)[C@H](NC(=O)[C@H](Cc1ccccc1)NC(=O)[C@H](CCCNC(=N)N)NC(=O)[C@H](CCC(N)=O)NC(=O)[C@H](CC(C)C)NC(=O)[C@H](C)NC(=O)[C@H](C)NC(=O)CNC(=O)[C@H](CCC(=O)O)NC(=O)[C@H](CC(C)C)NC(=O)[C@H](CC(C)C)NC(=O)[C@H](Cc1ccccc1)NC(=O)[C@H](CO)NC(=O)[C@H](Cc1c[nH]c2ccccc12)NC(=O)[C@H](CC(=O)O)NC(=O)[C@H](CO)NC(=O)[C@@H](NC(=O)[C@H](Cc1ccccc1)NC(=O)[C@@H](NC(=O)CNC(=O)[C@H](CCC(=O)O)NC(=O)C(C)(C)NC(=O)[C@@H](N)Cc1c[nH]cn1)[C@@H](C)O)[C@@H](C)O)C(=O)N[C@@H](CCC(N)=O)C(=O)N[C@@H](Cc1c[nH]c2ccccc12)C(=O)N[C@@H](CC(C)C)C(=O)N[C@H](C(N)=O)C(C)C` [compound 190] (H-H[Aib]EGTFTSDWSFLLEGAALQRFIQWLV-NH2), for which the “Turbidity (pH 7)” value in data set [1] was 0.61. Also, the Fibril formation in data set [2] came out at 260000. At GLP1R, the EC50 was 0.0631 nM and the “SCTR EC50/GLP1R EC50 ratio” value is given as 1844. For the same molecule, the EC50 at SCTR was 100 nM.

For `CC[C@H](C)[C@H](NC(=O)[C@H](Cc1ccccc1)NC(=O)[C@H](CCCNC(=N)N)NC(=O)[C@H](CCC(N)=O)NC(=O)[C@H](CC(C)C)NC(=O)[C@H](C)NC(=O)[C@H](C)NC(=O)CNC(=O)[C@H](CCC(=O)O)NC(=O)[C@H](CC(C)C)NC(=O)[C@H](CC(C)C)NC(=O)[C@H](Cc1c[nH]c2ccccc12)NC(=O)[C@H](CO)NC(=O)[C@H](Cc1c[nH]c2ccccc12)NC(=O)[C@H](CC(=O)O)NC(=O)[C@H](CO)NC(=O)[C@@H](NC(=O)[C@H](Cc1ccccc1)NC(=O)[C@@H](NC(=O)CNC(=O)[C@H](CCC(=O)O)NC(=O)C(C)(C)NC(=O)[C@@H](N)Cc1c[nH]cn1)[C@@H](C)O)[C@@H](C)O)C(=O)N[C@@H](CCC(N)=O)C(=O)N[C@@H](Cc1c[nH]c2ccccc12)C(=O)N[C@@H](CC(C)C)C(=O)N[C@H](C(N)=O)C(C)C` [compound 191] (H-H[Aib]EGTFTSDWSWLLEGAALQRFIQWLV-NH2), the “Turbidity (pH 7)” value in data set [1] came to 0.61. In addition, the Fibril formation in data set [2] amounted to 120310. Further, the EC50 was 0.0794 nM on GLP1R and 63.1 nM on SCTR. Also, the “SCTR EC50/GLP1R EC50 ratio” value on GLP1R is given as 904.
